Consider three sequences from US11034735B2, “Hybrid peptide, set of hybrid peptides, composition, uses of the hybrid peptide, method for inducing an immune response and kits” (priority 2017, dated 2021).

One assay relates to serum of BALB/c mice. Kind of assay: Dot-ELISA, synthetic peptides with serum of immunized BALB/c mice. The assay is classed as in vivo. Also noted: key to Peptide Reactivity, Mice serum inoculated with isolated peptides 1 / Peptide Reactivity, Mice serum inoculated with isolated peptides 2 / Peptide Reactivity, Mice serum inoculated with isolated peptides 3 / Peptide Reactivity, Mice serum inoculated with pool / Peptide Reactivity, Mice serum inoculated with Saline (Negative Control) / Reaction with pool of peptides, Mouse 1 serum / Reaction with pool of peptides, Mouse 2 serum / Reaction with pool of peptides, Mouse 3 serum: — = Did not react; X = Reacted. The note with it: for Peptide Reactivity, Mice serum inoculated with pool / Peptide Reactivity, Mice serum inoculated with isolated peptides 1 / Peptide Reactivity, Mice serum inoculated with isolated peptides 2 / Peptide Reactivity, Mice serum inoculated with isolated peptides 3 / Peptide Reactivity, Mice serum inoculated with Saline (Negative Control) / Reaction with pool of peptides, Mouse 1 serum / Reaction with pool of peptides, Mouse 2 serum / Reaction with pool of peptides, Mouse 3 serum: Dot-ELISA; for Peptide Reactivity, Mice serum inoculated with pool / Peptide Reactivity, Mice serum inoculated with isolated peptides 1 / Peptide Reactivity, Mice serum inoculated with isolated peptides 2 / Peptide Reactivity, Mice serum inoculated with isolated peptides 3 / Peptide Reactivity, Mice serum inoculated with Saline (Negative Control) / Dot-ELISA reaction of sera from mice inoculated with hybrid peptides alone: peptide as antigen; for Peptide Reactivity, Mice serum inoculated with pool: mice inoculated with pool of all 8 hybrid peptides; for Peptide Reactivity, Mice serum inoculated with isolated peptides 1: serum of mouse 1 inoculated with the same isolated peptide; for Peptide Reactivity, Mice serum inoculated with isolated peptides 1 / Peptide Reactivity, Mice serum inoculated with isolated peptides 2 / Peptide Reactivity, Mice serum inoculated with isolated peptides 3: serum 1:25; for Peptide Reactivity, Mice serum inoculated with isolated peptides 2: serum of mouse 2 inoculated with the same isolated peptide; for Peptide Reactivity, Mice serum inoculated with isolated peptides 3: serum of mouse 3 inoculated with the same isolated peptide; for Peptide Reactivity, Mice serum inoculated with Saline (Negative Control): serum of saline-inoculated mice; for Reaction with pool of peptides, Mouse 1 serum / Reaction with pool of peptides, Mouse 2 serum / Reaction with pool of peptides, Mouse 3 serum: pool of peptides as antigen; for Reaction with pool of peptides, Mouse 1 serum: serum of mouse 1 inoculated with the labelled peptide; for Reaction with pool of peptides, Mouse 2 serum: serum of mouse 2 inoculated with the labelled peptide; for Reaction with pool of peptides, Mouse 3 serum: serum of mouse 3 inoculated with the labelled peptide. Here is the method: (§1) The immunogenicity of each peptide was checked immunizing BALB/c mice, approximately six weeks old, with […] of protein (Machado et al., 1994). The mice were divided into groups of three animals each. The groups were: P28, P41, P42, P44, P50, P51, P53, P54, Pool (mice inoculated with a pool of peptides, in the case with all 8 hybrid peptides) and negative control group. For inoculations, the peptides were emulsified in Freund's complete adjuvant (Sigma) and inoculated intramuscularly in the quadriceps. Two further immunizations, on the 14th and 28th day after inoculation, were performed using incomplete Freund's adjuvant (Sigma). Each inoculation was carried out using 10 μg/mL of each peptide. Negative control mice were inoculated with sterile saline in place of the peptides and also emulsified in adjuvant. Blood samples were collected by intracardiac puncture on the 10th day after the last immunization and the sera obtained were stored at −20° C. until evaluated by Dot-ELISA and Western-blotting assays.
(§2) Synthetic peptides were used as antigen in the Dot-ELISA technique to verify their ability to react with specific antibodies present in the serum of BALB/c mice, as well as in calf serum, all immunized. The technique was performed as described by Machado et al. (1994), with minor modifications. Briefly, small nitrocellulose discs were cut using a paper punch and each disc arranged in a flat bottom 24-well culture plate well. 4 μg/mL of each synthetic peptide alone, as well as the peptide pool, were deposited on each disc. The discs were dried at room temperature and then blocked for 12 hours at room temperature with […] TBS buffer (0.1 M Tris, 0.1 M NaCl and 0.5% Tween 20; TBS-Tween 20), plus 5% skim milk powder. Test sera were diluted 1:25 (mice and calf) in TBS-Tween 20 containing 5% skim milk powder and incubated for 120 minutes at room temperature and under constant stirring. Then the discs were subjected to two washes with TBS-Tween 20 plus 5% skim milk powder and one wash with TBS-Tween 20 (5 min interval between each wash). To each mouse serum disc was added the alkaline phosphate-coupled anti-mouse conjugate (anti-mouse IgG goat IgG, Sigma A-3562) diluted 1:30,000 in TBS-Tween 20 plus 5% of skim milk powder. To calf serum-containing discs, it was added alkaline phosphate-coupled anti-bovine conjugate (anti-cattle IgG rabbit IgG, Sigma A-0705) diluted 1:30,000 in TBS-Tween 20, plus 5% skim milk powder. After one hour incubation with the appropriate conjugates, washes were followed as in the previous step.

Assay [1] has as its system calf serum. Nature of the assay: Dot-ELISA, synthetic peptides with serum of calf immunized with peptide pool. Also noted: key to Peptide Reactivity, Calf serum inoculated with pool: — = Did not react; X = Reacted. It is filed as in vivo. The note with it: for Peptide Reactivity, Calf serum inoculated with pool: Dot-ELISA, peptide as antigen, calf inoculated with pool SEQ ID NO: 20, 21, 23, 25, 26.
Text: (§3) The immunogenicity of the synthetic peptides was verified by immunizing a previously tested calf with negative results for Anaplasma marginale, Babesia bovis and Babesia bigemina by serology and PCR. For inoculations, a peptide pool (SEQ ID NO: 20, SEQ ID NO: 21, SEQ ID NO: 23, SEQ ID NO: 25 and SEQ ID NO: 26) was emulsified in Freund's complete adjuvant (Sigma) and, inoculated intramuscularly in the quadriceps. Two further immunizations, on the 14th and 28th day after inoculation, were performed using incomplete Freund's adjuvant (Sigma). Each inoculation was done using 100 μg/mL of each peptide. Blood samples were collected by jugular puncture on the 10th day after the last immunization and the sera obtained were stored at −20° C. until evaluated by Dot-ELISA and Western-blotting assays.
as §2

Another assay relates to A. marginale antigen. Nature of the assay: Indirect immunofluorescence reaction, sera of inoculated mice. The assay is classed as in vivo. The note with it: serum 1:25. As to the method:
as §1
The prepared A. marginale antigen-containing blood smear slides were removed from the freezer and thawed at room temperature. […] After drying the slides, they were coverslipped using a buffered glycerine at a 9:1 ratio of glycerine/0.5 M carbonate-bicarbonate buffer pH 9.6 and then observed under a fluorescence microscope (Olympus, BX-FLA).

The test system of assay [2] is bovine serum serologically positive / negative / vaccinated for A. marginale. Nature of the assay: Dot-ELISA, synthetic peptides with sera of cattle serologically positive, negative or vaccinated for A. marginale. It is filed as binding. The note with it: peptide as antigen. As to the method: as §2
Assay [3] has as its system calf serum. Nature of the assay: Western blotting, synthetic peptides with calf serum. The assay is classed as in vivo. The note with it: label = antigen on blot.
Text: as §3
(§4) Samples of synthetic peptides were analyzed by Western blotting. To this end, initially, the samples were submitted to polyacrylamide gel electrophoresis under denaturing conditions, according to the technique recommended by Laemmli (1970). Based on the sample volume 2× concentrated sample buffer (250 mM Tris-HCl pH 6.8, 40% glycerol, 8% SDS, 20% β-mercaptoethanol and 0.008% bromophenol blue) was added. The samples were homogenized, incubated for 5 minutes at 100° C. and applied to the gel. The separation gel was prepared at a concentration of 12% polyacrylamide in buffer (1.875 M Tris, pH 8.8 and 1% SDS) and 5% polyacrylamide for buffer packaging gel (1.875 M Tris, pH 6.8 and 0.5% SDS). Electrophoresis was performed in Tris-Glycine Running Buffer (50 mM Tris, pH 8.6, 1.92 M Glycine and 1% SDS) at 100 V for up to 3 hours and 30 minutes at 0° C. in the Mini-Protean II system (Bio-Rad).
Synthetic peptides processed on the polyacrylamide gel (SDS-PAGE) were transferred to the nitrocellulose membrane for analysis by Wester blot (TOWBIN et al., 1979). The nitrocellulose membrane (Merck) was previously incubated in ice cold transfer buffer (0.58% Tris Base pH 8.3, 20% methanol and 0.29% glycine). For this, the membrane was placed in the “Mini Trans-Blot” (Bio-Rad) electrotransfer system containing the same buffer and the transfer was performed at 100 V for 90 minutes. The membrane was incubated in TBS-Tween (10 mM Tris-HCl pH 7.5; 150 mM NaCl, 0.05% Tween-20) plus 5% skim milk powder for 12 hours at 4° C. under low agitation, for saturation of non-specific binding sites. The membrane was then incubated with each serum from each mouse alone or incubated with calf serum for 2 hours at room temperature under slow stirring. It was then subjected to three consecutive 10-minute washes with the same solution under slow agitation. […]

The test system of a further assay is mouse serum. Nature of the assay: Western blotting, synthetic peptides with serum of inoculated mice. The conditions noted are these: in vivo. As to the method: as §1, §4
Synthetic peptides processed on the polyacrylamide gel (SDS-PAGE) were transferred to the nitrocellulose membrane for analysis by Wester blot (TOWBIN et al., 1979). The nitrocellulose membrane (Merck) was previously incubated in ice cold transfer buffer (0.58% Tris Base pH 8.3, 20% methanol and 0.29% glycine). For this, the membrane was placed in the “Mini Trans-Blot” (Bio-Rad) electrotransfer system containing the same buffer and the transfer was performed at 100 V for 90 minutes. The membrane was incubated in TBS-Tween (10 mM Tris-HCl pH 7.5; 150 mM NaCl, 0.05% Tween-20) plus 5% skim milk powder for 12 hours at 4° C. under low agitation, for saturation of non-specific binding sites. The membrane was then incubated with each serum from each mouse alone or incubated with calf serum for 2 hours at room temperature under slow stirring. […]

On to “GASTDDAAAAAKIVAMAYGRGGGGTIVPVKTFDDGALTYFQFYDNNKVIP (Synthetic hybrid peptide) [P50]”, for which, in the assay on serum of BALB/c mice, the “Peptide Reactivity, Mice serum inoculated with pool” value is “—”; the “Peptide Reactivity, Mice serum inoculated with isolated peptides 1” value (shortened to “Peptide Reactivity … with isolated peptides 1”) is “—”; the “Peptide Reactivity, Mice serum inoculated with isolated peptides 2” value (“Peptide Reactivity … with isolated peptides 2” for short) is “—”; the “Peptide Reactivity, Mice serum inoculated with isolated peptides 3” value (“Peptide Reactivity … with isolated peptides 3” below) was “—”. For the same sequence, in the assay on serum of BALB/c mice, the “Peptide Reactivity, Mice serum inoculated with Saline (Negative Control)” value (shortened to “Peptide Reactivity … (Negative Control)”) is “—”; the “Reaction with pool of peptides, Mouse 1 serum” value (shortened to “Reaction … Mouse 1 serum”) is reported as “—”; the “Reaction with pool of peptides, Mouse 2 serum” value (“Reaction … Mouse 2 serum” below) is “—”; the “Reaction with pool of peptides, Mouse 3 serum” value (from here on “Reaction … Mouse 3 serum”) is on record as “—”. Further, the “Peptide Reactivity, Calf serum inoculated with pool” value in the assay on calf serum [1] was “—”. Besides, in the assay with A. marginale antigen, the “Indirect immunofluorescence reaction for A. marginale, inoculated mice” value is “positive”.
As to “GASTDDAAAAAKIVAMAYGRGGGGGASSVDALTATKLVAAALGH (Synthetic hybrid peptide) [P44]”, in the assay on serum of BALB/c mice, the “Peptide Reactivity, Mice serum inoculated with pool” value is on record as “—”; the “Peptide Reactivity … with isolated peptides 1” value is listed as “X”; the “Peptide Reactivity … with isolated peptides 2” value was “X”; the “Peptide Reactivity … with isolated peptides 3” value is “X”. Also, in the assay with serum of BALB/c mice, the “Peptide Reactivity … (Negative Control)” value is “—”; the “Reaction … Mouse 1 serum” value is on record as “—”; the “Reaction … Mouse 2 serum” value was “—”; the “Reaction … Mouse 3 serum” value is “—”. Also, the “Dot-ELISA reaction of sera from mice inoculated with hybrid peptides alone” value in the assay on serum of BALB/c mice is “reacted”. The “Peptide Reactivity, Calf serum inoculated with pool” value with calf serum [1] is given as “X”. Also, the “Dot-ELISA reaction of calf serum inoculated with the peptide pool with the antigen” value in the assay with calf serum [1] (label = antigen on disc) is given as “reacted”. In assay [2], the “Reaction of sera from serologically positive cattle for A. marginale with synthetic peptide” value was “reacted” and the “Reaction of sera from vaccinated cattle for A. marginale with synthetic peptide” value is “reacted”. In the assay with calf serum [3], the “Western blotting reactivity of calf serum inoculated with the peptide pool” value is reported as “showed reactivity”. The “Western blotting reaction of serum of mice inoculated with synthetic peptide” value in the assay with mouse serum was “reacted”.
Regarding “LAESTEGNLEEVWILGKGGGGDELSKKVCGKGTTSGSTNQCG (Synthetic hybrid peptide) [P42]”, in the assay on serum of BALB/c mice, the “Peptide Reactivity, Mice serum inoculated with pool” value is given as “—”; the “Peptide Reactivity … with isolated peptides 1” value is “X”; the “Peptide Reactivity … with isolated peptides 2” value is reported as “—”; the “Peptide Reactivity … with isolated peptides 3” value is on record as “—”. In addition, in the assay on serum of BALB/c mice, the “Peptide Reactivity … (Negative Control)” value was “—”; the “Reaction … Mouse 1 serum” value is listed as “—”; the “Reaction … Mouse 2 serum” value is given as “—”; the “Reaction … Mouse 3 serum” value is on record as “—”. Also, in the assay on serum of BALB/c mice, the “Dot-ELISA reaction of sera from mice inoculated with hybrid peptides alone” value is “reacted”. Also, in the assay with calf serum [1], the “Peptide Reactivity, Calf serum inoculated with pool” value is given as “—”. For the same sequence, the “Western blotting reaction of serum of mice inoculated with synthetic peptide” value in the assay on mouse serum is “reacted”. The “Indirect immunofluorescence reaction for A. marginale, inoculated mice” value in the assay with A. marginale antigen was “positive”.
